The values that follow come from ChEMBL document CHEMBL1151039, “Muscarinic antagonist activity of 3-(5-alkoxy-oxazol-2-yl)-1,2,5,6-tetrahydropyridines” (Bioorg Med Chem Lett, 1994).

Structures are written as SMILES.

Experiment [1] has as its target Muscarinic acetylcholine receptor. The experiment can be described thus: Inhibition of [3H]pirenzepine binding to muscarinic receptor in rat cortical homogenates.
The subject of experiment [2] is Mus musculus. The experiment is described as follows: In vivo antagonist activity measured as inhibition of oxotremorine induced tremors in mice at 1 mg/kg of ip administration. In kind it is functional. The settings on record: route intraperitoneal.
Experiment [3] is filed under the species Rattus norvegicus. The experiment can be described thus: In vitro inhibition of acetylcholine induced phosphatidyl inositol hydrolysis in a rat cerebral cortex slice preparation. In kind it is functional.

In experiment [1], `COc1oc(C2=CCCN(C)C2)nc1C` had a Ki of 90 nM.

In turn, `CCCOc1oc(C2=CCCN(C)C2)nc1C(C)CC` (stereo not given) had a Ki in experiment [1] of 0.8 nM.

Regarding `COc1oc(C2=CCCN(C)C2)nc1CC(C)C`, the inhibition constant Ki in experiment [1] turned out to be 25 nM. The same measure, in the same setting: to `COc1oc(C2=CCCN(C)C2)nc1Cc1ccccc1` belongs 16 nM. Turning to `CCCCCCOc1oc(C2=CCCN(C)C2)nc1C(C)CC` (stereo not given), in experiment [1], the Ki stood at 22 nM.

In the case of `COc1cnc(C2=CCCN(C)C2)o1`, the Ki in experiment [1] was more than 1000 nM. Still for that read-out and setting: as for `CCC(C)c1nc(C2=CCCN(C)C2)oc1OC` (stereo not given), the figure is 2 nM. On the same count and under the same terms, as for `CCCCOc1oc(C2=CCCN(C)C2)nc1C(C)CC` (stereo not given), the figure is 1.5 nM. On to `CCc1nc(C2=CCCN(C)C2)oc1OC`, for which, in experiment [1], the inhibitory constant (Ki) is reported as 30 nM.

Regarding `CCOc1oc(C2=CCCN(C)C2)nc1C`, in experiment [1], the Ki is listed as 33 nM. The same measure, in the same setting: to `CCOc1oc(C2=CCCN(C)C2)nc1C(C)CC` (stereo not given) belongs 0.8 nM. Same read-out and setting: to `CCCCc1nc(C2=CCCN(C)C2)oc1OC` belongs 11 nM. `CN1[C@@H]2C[C@@H](OC(=O)[C@H](CO)c3ccccc3)C[C@H]1[C@@H]1O[C@@H]12` [SCOPOLAMINE]: the AD50 in experiment [2] came out at 0.1 mg/kg. In addition, in experiment [3], inhibition was half-maximal at 8.9 nM (IC50). In turn, `COc1oc(C2=CCCN(C)C2)nc1C(C)C` displayed a Ki in experiment [1] of 10 nM.

One may read the Ki as the equilibrium dissociation constant of an inhibitor or competing ligand from its target. Low values mean a stronger hold on the target, high ones a looser hold on the target. In general, IC50 refers to the concentration needed to halve the response being measured.
